Reference: patent US8497278B2, “Imidazo[1,2-a]pyridine compounds” (priority 2008, dated 2013)

Legend:
[1] = target: T1, α2 subtype containing GABA-A receptors (Homo sapiens, UniProt P18507+P47869); assay: Two-electrode voltage clamp electrophysiology in Xenopus oocytes, potentiation of GABA EC20 response, α2; assay type: cell-based; settings: 100 nM compound; for activation at 0.1 µM: read-out: Percentage of potentiation alpha2
T1 construct: expressed in transfected cells; host or cells: Xenopus laevis oocytes, cRNA injected
Method: (§1) Electrophysiology protocol: Oocytes were prepared from adult female Xenopus laevis frogs. cRNA encoding human α1, α2, α3, α5, β3 and γ2L GABAA receptor subunits was injected into the cytoplasm of stage 5 or 6 oocytes using the Robocyte Robot (Multi Channel Systems, Reutlingen, Germany). Two-electrode voltage clamp recordings were made in 96-well plates using the Robocyte Robot. Oocytes were impaled using recording heads with two glass electrodes containing 1.5 M potassium acetate and 0.5 M KCl and held at a membrane potential of −80 mV. Oocytes were continually perfused with a ND96 solution (96 mM NaCl, 2 mM KCl, 0.1 mM CaCl2, and 5 mM HEPES, pH 7.5) using a Gilson 222 XL Liquid Handler and Gilson Minipuls 3 Peristaltic Pump (Gilson Medical Electronics, Middleton, Wis., USA). The protocol consisted of three 20-s applications of GABA that gave a 20% of the maximum response (EC20: 60 μM) to allow for headroom to determine a baseline GABA response. To assess the potentiation, oocytes were first exposed to a single 1 μM chlordiazepoxide (CDP) as a potentiation standard. Oocytes with insufficient expression levels (currents below threshold) or insufficient γ2L subunit incorporation (judged by rapid desensitization upon GABA application, or by insufficient potentiation by CDP) were not included in analysis. Following this control application, a given oocyte was exposed to test compounds at 100 nM concentrations. Only one concentration of one compound was tested per oocyte. […] One skilled in the art will recognize that subtypes contribute to the effects of GABA-A modulators. Such that compounds favoring different subtypes can have different therapeutic effects. The magnitude of modulation, for example, partial modulators can influence the effects in vivo. “++” indicates a greater modulation that “+” so that at any given subtype “++” inducates a greater amount of modulation for that subtype. In some embodiments, modulation favoring alpha 1 relative to alpha2 and/or alpha 3 can have sedative hypnotic effects. In other embodiments, compounds with reduced selectivity of alpha 1 can express anxiolytic effects with less sedation. Compounds with selectivity for alpha 5 can have memory/cognition enhancing effects.

[2] = target: T2, α1 subtype containing GABA-A receptors (Homo sapiens, UniProt P14867+P18507); assay: Two-electrode voltage clamp electrophysiology in Xenopus oocytes, potentiation of GABA EC20 response, α1; assay type: cell-based; settings: 100 nM compound; for activation at 0.1 µM: read-out: Percentage of potentiation alpha1
T2 construct: expressed in transfected cells; host or cells: Xenopus laevis oocytes, cRNA injected
Method: as §1

[3] = test system: central benzodiazepine receptors; assay: Central benzodiazepine receptor binding (test of Speth et al.); settings: 1000 nM of the compound
How it was run: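 Values are percent inhibition of central benzodiazepine receptor binding at 1000 nM compound (initial single-point screen at 1.0E-09, 1.0E-07 and 1.0E-05 M). Speth et al. binding test; nonspecific binding defined with excess unlabelled ligand and subtracted from total.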

T1 sequence (P47869 29-451): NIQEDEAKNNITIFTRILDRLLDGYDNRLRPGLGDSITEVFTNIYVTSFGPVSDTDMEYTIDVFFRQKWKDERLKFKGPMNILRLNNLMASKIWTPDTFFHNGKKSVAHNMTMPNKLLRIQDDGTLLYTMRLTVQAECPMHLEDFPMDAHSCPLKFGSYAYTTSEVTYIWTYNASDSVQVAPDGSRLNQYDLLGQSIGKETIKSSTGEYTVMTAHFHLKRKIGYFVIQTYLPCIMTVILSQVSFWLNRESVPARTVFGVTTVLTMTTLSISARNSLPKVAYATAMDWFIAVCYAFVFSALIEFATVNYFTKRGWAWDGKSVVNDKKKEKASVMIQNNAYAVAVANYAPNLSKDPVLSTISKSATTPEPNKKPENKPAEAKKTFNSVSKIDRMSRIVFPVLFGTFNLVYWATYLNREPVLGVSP
T1 sequence (P28472 26-473 partner): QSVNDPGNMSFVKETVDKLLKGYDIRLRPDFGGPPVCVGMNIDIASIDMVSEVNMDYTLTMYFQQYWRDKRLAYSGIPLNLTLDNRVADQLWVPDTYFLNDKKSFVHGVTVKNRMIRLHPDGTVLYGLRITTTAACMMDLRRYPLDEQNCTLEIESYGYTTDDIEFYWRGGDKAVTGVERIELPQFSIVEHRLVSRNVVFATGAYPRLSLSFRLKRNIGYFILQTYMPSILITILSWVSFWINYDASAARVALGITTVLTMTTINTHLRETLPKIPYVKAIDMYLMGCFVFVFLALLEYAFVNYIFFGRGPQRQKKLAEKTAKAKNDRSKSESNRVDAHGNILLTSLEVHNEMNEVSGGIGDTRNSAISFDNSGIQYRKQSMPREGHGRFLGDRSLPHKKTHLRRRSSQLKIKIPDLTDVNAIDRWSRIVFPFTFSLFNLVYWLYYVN
T1 sequence (P18507 40-475): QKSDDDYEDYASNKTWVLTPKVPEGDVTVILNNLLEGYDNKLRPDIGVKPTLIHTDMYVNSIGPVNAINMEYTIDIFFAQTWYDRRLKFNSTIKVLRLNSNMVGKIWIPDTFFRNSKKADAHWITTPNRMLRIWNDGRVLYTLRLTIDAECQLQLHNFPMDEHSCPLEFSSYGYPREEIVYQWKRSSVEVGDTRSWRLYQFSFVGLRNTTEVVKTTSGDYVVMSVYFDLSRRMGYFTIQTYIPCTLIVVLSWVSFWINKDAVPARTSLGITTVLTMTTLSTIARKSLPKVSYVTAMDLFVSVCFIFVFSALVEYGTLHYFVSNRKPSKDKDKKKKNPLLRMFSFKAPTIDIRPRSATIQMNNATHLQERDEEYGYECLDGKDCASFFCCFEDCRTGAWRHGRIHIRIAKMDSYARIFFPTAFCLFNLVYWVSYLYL
T2 sequence (P14867 28-456): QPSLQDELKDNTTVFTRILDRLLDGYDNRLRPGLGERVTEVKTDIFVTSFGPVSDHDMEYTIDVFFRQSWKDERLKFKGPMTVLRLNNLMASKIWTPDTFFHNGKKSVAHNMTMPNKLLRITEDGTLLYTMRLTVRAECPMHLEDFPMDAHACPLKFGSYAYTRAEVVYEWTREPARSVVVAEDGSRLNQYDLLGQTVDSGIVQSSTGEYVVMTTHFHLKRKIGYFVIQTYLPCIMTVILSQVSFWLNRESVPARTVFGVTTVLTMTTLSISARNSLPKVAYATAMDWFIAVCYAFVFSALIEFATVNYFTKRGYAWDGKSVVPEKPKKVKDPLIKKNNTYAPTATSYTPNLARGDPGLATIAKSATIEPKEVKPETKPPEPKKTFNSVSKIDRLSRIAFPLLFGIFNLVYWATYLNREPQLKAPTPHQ
T2 sequence (P28472 26-473 partner): as the sequence (P28472 26-473 partner) above
T2 sequence (P18507 40-475): as the sequence (P18507 40-475) above

| Compound | Percentage of potentiation alpha2 [1] | Percentage of potentiation alpha1 [2] | % Inhibition at 1000 nM for CBZD [3] | activation at 0.1 µM [1] | activation at 0.1 µM [2] |
| --- | --- | --- | --- | --- | --- |
| Cc1ccc2nc(-c3ccc(F)cc3)c(Cn3cncn3)n2c1 [Compound 63, 3-((1H-1,2,4-triazol-1-yl)methyl)-2-(4-fluorophenyl)-6-methylH-imidazo[1,2-a]pyridine] | 0 (percentage of potentiation is between about 10% to about −10%) | + (percentage of potentiation is greater than or equal to 10% but less than 50% in the presence of 100 nM of the compound) | ++ (percentage of inhibition of central BZD site binding is greater than 80% in the presence of 1000 nM of the compound) |  |  |
| Cc1nn(C)nc1Cc1c(-c2ccc(Cl)cc2)nc2ccc(Cl)cn12 [Compound 229, 6-Chloro-2-(4-chlorophenyl)-3-((2,5-dimethyl-2H-1,2,3-triazol-4-yl)methyl)imidazo[1,2-a]pyridine] |  |  | ++ (percentage of inhibition of central BZD site binding is greater than 80% in the presence of 1000 nM of the compound) | 10 to 50% | 10 to 50% |
| Cc1ccc(-c2nc3ccc(C)cn3c2Cn2ccnn2)cc1 [Compound 6, 3-((1H-1,2,3-triazol-1-yl)methyl)-6-methyl-2-p-tolylH-imidazo[1,2-a]pyridine] | + (percentage of potentiation is greater than or equal to 10% but less than 50% in the presence of 100 nM of the compound) | + (percentage of potentiation is greater than or equal to 10% but less than 50% in the presence of 100 nM of the compound) | ++ (percentage of inhibition of central BZD site binding is greater than 80% in the presence of 1000 nM of the compound) |  |  |
| Cc1nnc(Cc2c(-c3ccccc3)nc3ccc(Cl)cn23)[nH]1 [Compound 234, 6-chloro-3-((5-methyl-4H-1,2,4-triazol-3-yl)methyl)-2-phenylimidazo[1,2-a]pyridine] |  |  | ++ (percentage of inhibition of central BZD site binding is greater than 80% in the presence of 1000 nM of the compound) | ≥ 50% | 10 to 50% |
| CN(CCO)c1cncc(Cc2c(-c3ccc(Cl)cc3)nc3ccccn23)n1 [Compound 192, 2-((6-((2-(4-chlorophenyl)imidazo[1,2-a]pyridin-3-yl)methyl)pyrazin-2-yl)(methyl)amino)ethanol] |  |  | ++ (percentage of inhibition of central BZD site binding is greater than 80% in the presence of 1000 nM of the compound) | 10 to 50% | 10 to 50% |
| CCc1nccn1Cc1c(-c2ccc(C)cc2)nc2ccc(C)cn12 [Compound 4, 3-((2-Ethyl-1H-imidazol-1-yl)methyl)-6-methyl-2-p-tolylH-imidazo[1,2-a]pyridine] | 0 (percentage of potentiation is between about 10% to about −10%) | + (percentage of potentiation is greater than or equal to 10% but less than 50% in the presence of 100 nM of the compound) | ++ (percentage of inhibition of central BZD site binding is greater than 80% in the presence of 1000 nM of the compound) |  |  |
| CN1CCN(C2=CC(=O)N(Cc3c(-c4ccc(Cl)cc4)nc4ccccn34)C2)CC1 [Compound 238, 1-((2-(4-chlorophenyl)imidazo[1,2-a]pyridin-3-yl)methyl)-4-(4-methylpiperazin-1-yl)-1H-pyrrol-2(5H)-one] |  |  | ++ (percentage of inhibition of central BZD site binding is greater than 80% in the presence of 1000 nM of the compound) | 10 to 50% | 10 to 50% |
| Cc1ccc(-c2nc3ccc(C)cn3c2Cn2cncn2)cc1 [Compound 7, 3-((1H-1,2,4-triazol-1-yl)methyl)-6-methyl-2-p-tolylH-imidazo[1,2-a]pyridine] | + (percentage of potentiation is greater than or equal to 10% but less than 50% in the presence of 100 nM of the compound) | + (percentage of potentiation is greater than or equal to 10% but less than 50% in the presence of 100 nM of the compound) | ++ (percentage of inhibition of central BZD site binding is greater than 80% in the presence of 1000 nM of the compound) |  |  |
| CNC(=O)c1nccn1Cc1c(-c2ccc(Cl)cc2)nc2cccnn12 [Compound 88, 1-((2-(4-chlorophenyl)imidazo[1,2-b]pyridazin-3-yl)methyl)-N-methyl-1H-imidazole-2-carboxamide] |  |  | ++ (percentage of inhibition of central BZD site binding is greater than 80% in the presence of 1000 nM of the compound) | 10 to 50% | -10 to 10% |
| Clc1ccc(-c2nc3ccccn3c2Cn2nc3ccccc3n2)cc1 [Compound 43, 2-((2-(4-chlorophenyl)H-imidazo[1,2-a]pyridin-3-yl)methyl)-2H-benzo[d][1,2,3]triazole] | + (percentage of potentiation is greater than or equal to 10% but less than 50% in the presence of 100 nM of the compound) | 0 (percentage of potentiation is between about 10% to about −10%) | ++ (percentage of inhibition of central BZD site binding is greater than 80% in the presence of 1000 nM of the compound) |  |  |
| CNC(=O)c1ncnn1Cc1c(-c2ccc(Cl)cc2)nc2cccnn12 [Compound 90, 1-((2-(4-chlorophenyl)imidazo[1,2-b]pyridazin-3-yl)methyl)-N-methyl-1H-1,2,4-triazole-5-carboxamide] |  |  | ++ (percentage of inhibition of central BZD site binding is greater than 80% in the presence of 1000 nM of the compound) | 10 to 50% | 10 to 50% |
| CCOc1ccn(Cc2c(-c3ccc(Cl)cc3)nc3ccccn23)c(=O)n1 [Compound 137, 1-((2-(4-chlorophenyl)imidazo[1,2-a]pyridin-3-yl)methyl)-4-ethoxypyrimidin-2(1H)-one] |  |  | ++ (percentage of inhibition of central BZD site binding is greater than 80% in the presence of 1000 nM of the compound) | 10 to 50% | 10 to 50% |
| Fc1ccc(-c2nc3ccc(Cl)cn3c2CNc2nccc(CN3CCCC3)n2)cc1 [Compound 198, N-((6-chloro-2-(4-fluorophenyl)imidazo[1,2-a]pyridin-3-yl)methyl)-4-(pyrrolidin-1-ylmethyl)pyrimidin-2-amine] |  |  | ++ (percentage of inhibition of central BZD site binding is greater than 80% in the presence of 1000 nM of the compound) | ≥ 50% | ≥ 50% |
| CCNCc1ccnc(NCc2c(-c3ccc(F)cc3)nc3ccc(C)cn23)n1 [Compound 196, 4-((ethylamino)methyl)-N-((2-(4-fluorophenyl)-6-methylimidazo[1,2-a]pyridin-3-yl)methyl)pyrimidin-2-amine] |  |  | ++ (percentage of inhibition of central BZD site binding is greater than 80% in the presence of 1000 nM of the compound) | ≥ 50% | ≥ 50% |
| Cn1ccnc1Cc1c(-c2ccc(Cl)cc2)nc2ccccn12 [Compound 206, 2-(4-chlorophenyl)-3-((1-methyl-1H-imidazol-2-yl)methyl)imidazo[1,2-a]pyridine] |  |  | ++ (percentage of inhibition of central BZD site binding is greater than 80% in the presence of 1000 nM of the compound) | ≥ 50% | ≥ 50% |
| Cc1cccn(Cc2c(-c3ccc(Cl)cc3)nc3ccc(F)cn23)c1=O [Compound 121, 1-((2-(4-chlorophenyl)-6-fluoroimidazo[1,2-a]pyridin-3-yl)methyl)-3-methylpyridin-2(1H)-one] |  |  | ++ (percentage of inhibition of central BZD site binding is greater than 80% in the presence of 1000 nM of the compound) | ≥ 50% | ≥ 50% |
| OC1CCN(c2ccnc(NCc3c(-c4ccc(F)cc4)nc4ccc(Cl)cn34)n2)C1 (stereo not drawn) [Compound 189, 1-(2-((6-chloro-2-(4-fluorophenyl)imidazo[1,2-a]pyridin-3-yl)methylamino)pyrimidin-4-yl)pyrrolidin-3-ol] |  |  | ++ (percentage of inhibition of central BZD site binding is greater than 80% in the presence of 1000 nM of the compound) | ≥ 50% | ≥ 50% |
